Laboratory results as given in US12152012B2, “BRAG2 inhibitors and applications thereof” (CENTRE NATIONAL DE LA RECHERCHE SCIENTIFIQUE, priority 2018, dated 2024).

Key:
yeast ArfGEF Sec7p = molecular target: T1, yeast ArfGEF Sec7p (Saccharomyces cerevisiae, UniProt P11075); test: Yeast chemogenomic screen; type: cell-based
T1 construct: endogenous in cells; host or cells: yeast

Rac1/Trio = molecular target: T2, Rac1/Trio (Homo sapiens, UniProt O75962); test: Nucleotide exchange kinetics on liposomes, Rac1 tethered by hexahistidine tag; type: biochemical; conditions: 50 μM; Rac1 tethered to liposomes
T2 construct: human TRIO^DH1PH1 (1232-1550); made in house
Procedure: FIG. 2. Bragsin is a specific inhibitor of the ArfGEF BRAG2 • a. Bragsin1 has no effect on the Sec7 domain of human ArfGEFs in solution. Nucleotide exchange kinetics were measured by fluorescence kinetics in the presence of Bragsin1 (50 μM) or DMSO using purified Sec7 domains and a truncated version of Arf1 (D17Arf1), which can be activated in solution. […] Nucleotide exchange kinetics were determined in the presence of Bragsin1 (50 μM) or DMSO with ArfGEF constructs carrying membrane-binding domains and myristoylated Arf1. […] was artificially tethered to liposomes by a C-terminal hexahistidine tag as described in (Peurois, F. et al. Biochem J 474, 1259-1272 (2017). Representative kinetic profiles are given in FIG. 15. • c. Bragsin1 inhibits the activation of myristoylated Arf6 by BRAG2 on liposomes. Experiments were carried out as in FIG. 2b. Representative kinetic profiles are given in FIG. 16. • d. Dose-response of Bragsin1 and Bragsin2 towards myristoylated Arf1 and BRAG2 on liposomes. Experiments were carried out as in FIG. 2b. • e. Silencing of BRAG2 phenocopies the effect of Bragsin2 on the TGN46 compartment. […]
The effect of Bragsin1 on the GEF efficiency of representative human ArfGEFs was evaluated by fluorescence kinetics using highly purified recombinant Arf GTPases and ArfGEFs. […]

[1] = tested on: tubulin and actin networks in Hela cells; test: Immunostaining and confocal microscopy of Hela cells; type: cell-based, human; conditions: 50 μM, 30 min
Procedure: FIG. 10: Bragsin2 has no effect on the tubulin and actin networks in Hela cells. HeLa cells were treated with either DMSO (0.25%) or Bragsin2 (50 μM) for 30 min, immunostained for α-tubulin (green channel) or F-actin (magenta channel) and analysed by confocal microscopy.
Hela cells were grown in Dulbecco's modified Eagle's medium supplemented with Glutamax™ and 10% fetal bovine serum (Invitrogen). For immunofluorescence studies, cells were grown on Labtek glass slides (Nunc) and transfected for 18 to 24 h using Lipofectamine 2000 (Invitrogen), according to the supplier's instructions. […]
Immunostaining procedure was as described in (Viaud, J. et al. Structure-based discovery of an inhibitor of Arf activation by Sec7 domains through targeting of protein-protein complexes. Proc Natl Acad Sci USA 104, 10370-5 (2007)) except that secondary antibody incubation was performed for 1h using Alexa 488-conjugated goat anti-mouse (1:600) or donkey anti-sheep (1:500) IgG and Alexa 647-conjugated phalloidin (1:100). […] Images were bidirectionally recorded using an inverted Leica TCS SP8 laser-scanning confocal microscope with a 100× (N. A. 1.40) oil objective (HCX APO, Leica). Fluorochromes were detected sequentially using excitation laser lines at 488 nm (Alexa 488), 594 nm (mCherry) and 633 nm (Alexa 647). […]

[2] = tested on: EEA1 (early endosome marker) in Hela cells; test: as above; type: cell-based, human; conditions: 50 μM, 30 min
Procedure: FIG. 1. Bragsin2 affects Arf pathways in cells • a. Chemical structures of Bragsin1 and Bragsin2 and derivatives used in this study. Chemical synthesis and structural characterization of the compounds are described in example 6. • b. Bragsin2 disperses the TGN46 and GM130 markers. HeLa cells were treated with either DMSO (0.25%) or Bragsin2 (50 μM) for 30 min, immunostained for TGN46, GM130 or EEA1 (green channel) and analysed by confocal microscopy. Dispersion of GM130 and TGN46 by Bragsin2 is reversible. Hela cells were treated as in FIG. 1a and were incubated for an additional 30 min in fresh medium (wash panel) prior to immunostaining and confocal microscopy analysis. Expression of Arf-mCherry constructs carrying an activating mutation rescues the effect of Bragsin2. Hela cells were transfected with constitutively active Q/L mutants of Arf-mCherry. Note the difference between non-transfected cells (white asterisk) and transfected cells. Scale bars, 10 μm.
Hela cells were grown in Dulbecco's modified Eagle's medium supplemented with Glutamax™ and 10% fetal bovine serum (Invitrogen). For immunofluorescence studies, cells were grown on Labtek glass slides (Nunc) and transfected for 18 to 24 h using Lipofectamine 2000 (Invitrogen), according to the supplier's instructions. When specified, cells were treated with the indicated concentration of small molecule or corresponding volume of vehicle (DMSO) in growth medium for 30 min at 37° C.
Immunostaining procedure was as described in (Viaud, J. et al. Structure-based discovery of an inhibitor of Arf activation by Sec7 domains through targeting of protein-protein complexes. Proc Natl Acad Sci USA 104, 10370-5 (2007)) except that secondary antibody incubation was performed for 1h using Alexa 488-conjugated goat anti-mouse (1:600) or donkey anti-sheep (1:500) IgG and Alexa 647-conjugated phalloidin (1:100). Anti-GM130 was used at dilution 1:200. Images were bidirectionally recorded using an inverted Leica TCS SP8 laser-scanning confocal microscope with a 100× (N. A. 1.40) oil objective (HCX APO, Leica). Fluorochromes were detected sequentially using excitation laser lines at 488 nm (Alexa 488), 594 nm (mCherry) and 633 nm (Alexa 647). Stacks were generated using a z-step of 0.5 μm and processed using Fiji/ImageJ (Schindelin, J. et al. Fiji: an open-source platform for biological-image analysis. Nat Methods 9, 676-82 (2012)). Images are representative of at least two independent experiments.

T1 sequence (P11075 whole entry): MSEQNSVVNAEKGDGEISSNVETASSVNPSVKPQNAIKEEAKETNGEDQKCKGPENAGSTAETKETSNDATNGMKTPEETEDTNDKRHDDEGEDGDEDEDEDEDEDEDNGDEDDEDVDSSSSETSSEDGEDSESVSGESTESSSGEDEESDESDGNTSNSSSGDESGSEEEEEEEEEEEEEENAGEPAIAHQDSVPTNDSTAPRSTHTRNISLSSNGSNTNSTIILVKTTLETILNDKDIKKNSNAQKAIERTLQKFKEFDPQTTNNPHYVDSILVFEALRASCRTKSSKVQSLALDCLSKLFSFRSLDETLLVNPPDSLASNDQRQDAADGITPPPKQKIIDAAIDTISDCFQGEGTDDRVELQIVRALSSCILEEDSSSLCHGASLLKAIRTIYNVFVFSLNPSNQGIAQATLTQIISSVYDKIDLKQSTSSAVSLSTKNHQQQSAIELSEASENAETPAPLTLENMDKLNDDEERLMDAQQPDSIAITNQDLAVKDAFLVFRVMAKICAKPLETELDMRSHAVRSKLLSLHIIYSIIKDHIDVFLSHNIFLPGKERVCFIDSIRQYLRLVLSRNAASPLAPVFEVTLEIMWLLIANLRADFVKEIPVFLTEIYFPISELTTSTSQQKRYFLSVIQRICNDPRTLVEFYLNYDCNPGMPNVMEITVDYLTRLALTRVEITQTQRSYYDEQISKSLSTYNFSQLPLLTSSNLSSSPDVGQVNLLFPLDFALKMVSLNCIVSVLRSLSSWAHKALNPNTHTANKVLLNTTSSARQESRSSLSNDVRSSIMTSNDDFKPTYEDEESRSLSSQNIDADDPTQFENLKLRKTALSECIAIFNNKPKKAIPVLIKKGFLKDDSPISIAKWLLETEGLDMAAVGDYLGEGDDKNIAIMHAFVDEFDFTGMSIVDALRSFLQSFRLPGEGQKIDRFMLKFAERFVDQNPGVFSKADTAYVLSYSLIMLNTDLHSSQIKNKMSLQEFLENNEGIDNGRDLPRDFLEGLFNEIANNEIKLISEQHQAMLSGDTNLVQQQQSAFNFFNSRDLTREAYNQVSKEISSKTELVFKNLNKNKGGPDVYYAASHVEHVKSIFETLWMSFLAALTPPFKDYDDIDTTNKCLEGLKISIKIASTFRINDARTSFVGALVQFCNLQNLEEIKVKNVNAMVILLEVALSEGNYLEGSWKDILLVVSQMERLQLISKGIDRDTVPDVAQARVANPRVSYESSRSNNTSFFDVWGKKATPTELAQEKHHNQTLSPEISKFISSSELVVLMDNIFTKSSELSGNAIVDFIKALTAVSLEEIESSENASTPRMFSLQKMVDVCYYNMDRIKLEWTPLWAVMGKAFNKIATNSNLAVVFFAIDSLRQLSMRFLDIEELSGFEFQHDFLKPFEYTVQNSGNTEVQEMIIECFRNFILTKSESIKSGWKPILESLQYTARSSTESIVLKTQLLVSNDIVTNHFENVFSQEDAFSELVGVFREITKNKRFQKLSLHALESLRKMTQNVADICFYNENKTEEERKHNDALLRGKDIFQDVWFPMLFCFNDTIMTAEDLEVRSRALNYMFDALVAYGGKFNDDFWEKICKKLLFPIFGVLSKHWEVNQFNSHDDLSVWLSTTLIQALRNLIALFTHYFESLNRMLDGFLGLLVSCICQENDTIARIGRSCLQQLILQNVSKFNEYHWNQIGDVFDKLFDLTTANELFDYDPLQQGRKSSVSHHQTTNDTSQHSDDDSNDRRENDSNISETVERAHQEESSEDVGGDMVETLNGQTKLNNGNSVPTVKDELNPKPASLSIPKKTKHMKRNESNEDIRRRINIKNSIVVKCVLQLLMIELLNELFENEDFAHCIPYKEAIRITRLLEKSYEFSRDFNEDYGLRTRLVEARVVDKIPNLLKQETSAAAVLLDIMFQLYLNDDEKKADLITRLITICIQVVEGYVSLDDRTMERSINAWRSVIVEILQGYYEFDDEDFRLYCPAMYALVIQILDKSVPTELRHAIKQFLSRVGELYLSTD

| Structure (SMILES) | Effect on function of yeast ArfGEF Sec7p (yeast ArfGEF Sec7p) | Effect on Rac1/Trio exchange activity on liposomes (Rac1/Trio) | Effect on tubulin and actin networks [1] | Effect on early endosome marker EEA1 [2] |
| --- | --- | --- | --- | --- |
| Cc1ccc2oc(C(F)(F)F)cc(=O)c2c1[N+](=O)[O-] [Bragsin1, 6-methyl-5-nitro-2-(trifluoromethyl)-4H-chromen-4-one] | perturbs the function | no effect |  |  |
| COc1ccc2oc(C(F)(F)F)cc(=O)c2c1[N+](=O)[O-] [Bragsin2, 6-methoxy-5-nitro-2-(trifluoromethyl)-4H-chromen-4-one] |  |  | no effect | no effect |
